# Experimental data from patent US20050208394A1, “Dye-containing curable composition, color filter and method of producing the color filter” (FUJI PHOTO FILM CO., LTD., priority 2004, published 2005).
# How the values were obtained:
# [1] = Heat resistance: change in chromaticity ΔEab* of the coated glass substrate after hot plate heating; format: physicochemical; conditions: 200° C. for one hour
# Description: The glass substrate coated with the dye resist solution was placed on a hot plate such that its surface was in contact with the hot plate and heated at 200° C. for one hour to measure a change in chromaticity, namely ΔEab* value, before and after the substrate was placed, by using a chromaticity meter (trade name: MCPD-1000, manufactured by Otsuka Electronics Co., Ltd.). The obtained ΔEab* value was adopted as an index showing the degree of […] and evaluated based on the following criteria. The smaller the ΔEab* value is, the higher the heat resistance is.
# • A: ΔEab* was 5 or less. • B: ΔEab* exceeded 5 and was less than 10. • C: ΔEab* was 10 or more. —Light Fastness—
# [2] = Light fastness: change in chromaticity ΔEab* of the coated glass substrate after xenon lamp irradiation; format: physicochemical; conditions: xenon lamp 50,000 Lux for 10 hours
# Description: The glass substrate coated with the dye resist solution was irradiated with 50,000 Lux light from a xenon lamp for 10 hours (corresponding to 500,000 Lux·h) and then, a change in chromaticity, namely ΔEab* value, before and after the irradiation was measured. The obtained ΔEab* value was adopted as an index showing the degree of […] and evaluated based on the following criteria. The smaller the ΔEab* value is, the higher the […] is.
# • A: ΔEab* was 3 or less. • B: ΔEab* exceeded 3 and was less than 10. • C: ΔEab* was 10 or more. —Pattern Shape—
# A cyan pattern image was obtained by carrying out coating, prebaking, irradiation, developing, rinsing and drying in the same manner as in Example 1 and then heated at 180° C. for 5 minutes. Also, the heat resistance, light fastness and pattern shape were evaluated in the same manner as in Example 1 and also the solubility of the dye (exemplified compound (3)) was evaluated visually according to the same criteria as in Example 1 from the degree of solubility when the dye was dissolved in the above “1) Preparation of a dye resist solution (positive type dye-containing curable composition)”.
# [3] = negative type dye resist film on glass
# [4] = positive type dye resist film on glass
Compound,"Heat resistance [1, 3]","Heat resistance [1, 4]","Light fastness [2, 3]","Light fastness [2, 4]"
"Tetra-β-(3,5-dimethylpyrazolyl)zinc phthalocyanine [Exemplified compound (4)]",A (ΔEab* was 5 or less.),A (ΔEab* was 5 or less.),A (ΔEab* was 3 or less.),A (ΔEab* was 3 or less.)
"Tetra-α-(3,5-dimethylpyrazolyl)zinc phthalocyanine [Exemplified compound (3)]",A (ΔEab* was 5 or less.),A (ΔEab* was 5 or less.),A (ΔEab* was 3 or less.),A (ΔEab* was 3 or less.)
Cc1cc(C)n(-c2ccc3c(c2)-c2nc-3nc3[n-]c(nc4nc(nc5[n-]c(n2)c2ccc(-n6nc(C)cc6C)cc52)-c2cc(-n5nc(C)cc5C)ccc2-4)c2ccc(-n4nc(C)cc4C)cc32)n1.[Ni+2] [Exemplified compound (16)],,A (ΔEab* was 5 or less.),,A (ΔEab* was 3 or less.)
